Experimental data reported in patent US11160489B2, “Wireless optofluidic systems for programmable in vivo pharmacology and optogenetics” (THE BOARD OF TRUSTEES OF THE UNIVERSITY OF ILLINOIS, priority 2015, dated 2021).
“Also recorded” adds a separate entry of the source.

Biological target: T1, μ-opioid receptor (MOPR) (Mus musculus, UniProt P42866)
T1 construct: from tissue; host or cells: ventral tegmental area of living wild-type C57Bl6 mice (in vivo)
Test: Contraversive rotation/locomotor testing assay after wireless intra-VTA infusion
Format: in vivo
Details: 200 pmol, wireless unilateral intra-VTA infusion, within-subject vs ACSF vehicle, wild-type mice, n=7
Excerpt: As a proof-of-principle within-subject in vivo pharmacology experiment, two chambers of each device were loaded with different pharmacological agents; one with the synthetic opioid peptide and MOPR agonist, [D-Ala^2, N-MePhe^4, Gly-ol]-enkephalin (DAMGO, 200 pmol, Tocris), and one with artificial cerebral spinal fluid (ACSF) as a vehicle control. In a counter-balanced design, either the DAMGO or vehicle was wirelessly delivered into the VTA of freely behaving animals over a distance of ˜1 m away from the animal (FIGS. 88, A and B).
After the mice were acclimatized to the holding facility for seven to nine days, they were anaesthetized in an induction chamber (4% Isolflurane) and placed in a stereotaxic frame (Kopf Instruments, Model 1900) where they were maintained at 1-2% isoflurane. […] For the DAMGO-induced rotation experiment, mice were implanted with the microfluidic device above the VTA (stereotaxic coordinates from bregma (mm): AP:-3.10, ML: +/−0.50, DV: −4.25). […] A standard electrode holder (KOPF 1770) was adapted to implant the microfluidic and optofluidic devices. […] The implants were secured using two bone screws (CMA, 743102) and affixed with dental cement (Lang Dental). C571Bl6 mice were allowed to recover for 5 days prior to behavioral testing.
C571Bl6 mice with microfluidic devices implanted above the VTA were placed in the center of the same arena used for the OFT and allowed to roam freely for 1 hr. Wireless infusion of vehicle or DAMGO was initiated and movements were video recorded and analyzed using Ethovision. Rotations were defined as full 360° revolutions in the path of movement.

T1 sequence (P42866 whole entry): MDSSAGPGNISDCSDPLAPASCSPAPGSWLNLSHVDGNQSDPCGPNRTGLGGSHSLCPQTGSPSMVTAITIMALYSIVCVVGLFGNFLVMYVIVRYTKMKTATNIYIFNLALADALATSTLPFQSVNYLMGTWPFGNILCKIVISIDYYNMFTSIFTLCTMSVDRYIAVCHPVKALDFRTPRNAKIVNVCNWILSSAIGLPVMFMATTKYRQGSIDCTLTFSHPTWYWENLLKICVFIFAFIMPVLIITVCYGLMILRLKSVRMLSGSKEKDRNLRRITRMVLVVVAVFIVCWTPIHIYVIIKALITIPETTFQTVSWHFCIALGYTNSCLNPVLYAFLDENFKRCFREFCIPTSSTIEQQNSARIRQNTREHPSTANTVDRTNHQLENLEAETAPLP

For `C[C@@H](NC(=O)[C@@H](N)Cc1ccc(O)cc1)C(=O)NCC(=O)N(C)[C@@H](Cc1ccccc1)C(=O)NCCO` [DAMGO, [D-Ala^2, N-MePhe^4, Gly-ol]-enkephalin], the “contraversive 360° rotations” value was “significant increase; also recorded: stereotypical rotations contralateral to injection site” and the overall locomotor activity was “significant increase; also recorded: robust increase in overall locomotor activity”.
